Data: PMC3901432 (Bioorganic & medicinal chemistry letters, 2013)

Assays:
[1] = target: mGlu6 (Homo sapiens, UniProt O15303); assay: mGlu selectivity cell based functional assay; conditions: tested at 10 μM
[2] = target: mGlu3 (Homo sapiens, UniProt Q14832); assay: mGlu selectivity cell based functional assay; conditions: tested at 10 μM
[3] = target: mGlu2 (Homo sapiens, UniProt Q14416); assay: mGlu selectivity cell based functional assay; conditions: tested at 10 μM
[4] = target: mGlu8 (Homo sapiens, UniProt O00222); assay: mGlu selectivity cell based functional assay; conditions: tested at 10 μM
[5] = target: human mGlu1 (Homo sapiens, UniProt Q13255); assay: Calcium mobilization mGlu1 assay; format: cell-based; conditions: for LLE: ligand-lipophilicity efficiency = pIC50−cLogP; for mGlu1 antagonism (in words): up to the top concentration of 30 μM
[6] = target: mGlu4 (Homo sapiens, UniProt Q14833); assay: mGlu selectivity cell based functional assay; conditions: tested at 10 μM
[7] = target: CYP3A4 (Homo sapiens, UniProt P08684); assay: Cytochrome P450 inhibition assay in pooled human liver microsomes; format: in vitro ADME
[8] = target: mGlu7 (Homo sapiens, UniProt Q14831); assay: mGlu selectivity cell based functional assay; conditions: tested at 10 μM

human mGlu1, sequence (Q13255 19-1194): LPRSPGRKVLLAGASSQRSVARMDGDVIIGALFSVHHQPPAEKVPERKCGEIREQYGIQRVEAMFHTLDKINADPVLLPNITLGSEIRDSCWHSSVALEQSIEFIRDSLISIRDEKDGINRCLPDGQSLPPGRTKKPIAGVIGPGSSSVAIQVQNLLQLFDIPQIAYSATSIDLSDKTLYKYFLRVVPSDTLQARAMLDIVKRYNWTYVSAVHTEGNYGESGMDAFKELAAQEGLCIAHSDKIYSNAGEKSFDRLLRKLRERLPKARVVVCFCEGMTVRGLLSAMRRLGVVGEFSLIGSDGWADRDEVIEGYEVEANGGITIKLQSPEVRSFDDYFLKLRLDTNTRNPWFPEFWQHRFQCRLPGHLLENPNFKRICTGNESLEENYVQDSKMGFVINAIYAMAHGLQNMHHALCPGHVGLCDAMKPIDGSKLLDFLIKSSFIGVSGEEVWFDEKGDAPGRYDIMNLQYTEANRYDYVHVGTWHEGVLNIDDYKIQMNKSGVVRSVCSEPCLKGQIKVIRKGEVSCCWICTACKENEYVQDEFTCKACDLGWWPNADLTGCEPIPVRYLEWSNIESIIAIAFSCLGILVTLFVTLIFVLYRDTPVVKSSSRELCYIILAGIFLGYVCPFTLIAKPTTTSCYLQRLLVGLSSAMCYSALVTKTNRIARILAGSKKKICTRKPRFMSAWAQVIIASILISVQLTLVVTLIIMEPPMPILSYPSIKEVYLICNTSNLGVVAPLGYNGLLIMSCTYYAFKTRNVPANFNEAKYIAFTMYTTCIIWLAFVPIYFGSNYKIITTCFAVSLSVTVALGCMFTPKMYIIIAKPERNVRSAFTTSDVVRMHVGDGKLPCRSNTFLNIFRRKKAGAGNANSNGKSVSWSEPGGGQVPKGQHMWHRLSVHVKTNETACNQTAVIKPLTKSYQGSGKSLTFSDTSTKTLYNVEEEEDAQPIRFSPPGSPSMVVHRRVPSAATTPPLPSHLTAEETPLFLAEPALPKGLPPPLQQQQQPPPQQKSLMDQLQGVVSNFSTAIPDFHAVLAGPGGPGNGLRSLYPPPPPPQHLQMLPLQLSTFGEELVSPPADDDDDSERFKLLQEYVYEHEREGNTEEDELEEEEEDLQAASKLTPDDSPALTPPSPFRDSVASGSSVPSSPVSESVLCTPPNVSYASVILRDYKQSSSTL
mGlu3, sequence (Q14832 23-879): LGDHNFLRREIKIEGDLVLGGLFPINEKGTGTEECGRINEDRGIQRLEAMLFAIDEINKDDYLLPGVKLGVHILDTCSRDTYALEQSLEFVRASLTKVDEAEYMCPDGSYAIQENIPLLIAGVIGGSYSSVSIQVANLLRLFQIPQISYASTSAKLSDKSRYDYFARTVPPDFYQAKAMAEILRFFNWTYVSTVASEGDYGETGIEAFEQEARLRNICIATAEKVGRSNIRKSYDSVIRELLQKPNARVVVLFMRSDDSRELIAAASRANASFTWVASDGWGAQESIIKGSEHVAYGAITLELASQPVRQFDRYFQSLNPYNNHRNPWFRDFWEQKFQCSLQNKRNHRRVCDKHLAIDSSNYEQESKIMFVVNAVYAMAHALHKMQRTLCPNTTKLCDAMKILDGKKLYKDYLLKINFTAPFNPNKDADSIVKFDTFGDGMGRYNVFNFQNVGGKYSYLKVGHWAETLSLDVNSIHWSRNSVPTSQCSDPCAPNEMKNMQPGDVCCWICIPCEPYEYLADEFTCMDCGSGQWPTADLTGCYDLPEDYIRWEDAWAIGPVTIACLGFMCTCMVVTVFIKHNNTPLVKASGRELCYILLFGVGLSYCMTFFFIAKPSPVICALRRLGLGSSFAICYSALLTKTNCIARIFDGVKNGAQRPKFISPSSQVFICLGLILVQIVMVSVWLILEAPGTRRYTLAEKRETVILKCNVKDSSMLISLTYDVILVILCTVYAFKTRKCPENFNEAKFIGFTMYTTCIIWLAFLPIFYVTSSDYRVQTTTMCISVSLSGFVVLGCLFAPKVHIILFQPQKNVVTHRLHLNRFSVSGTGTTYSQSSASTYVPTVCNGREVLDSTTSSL
mGlu4, sequence (Q14833 33-912): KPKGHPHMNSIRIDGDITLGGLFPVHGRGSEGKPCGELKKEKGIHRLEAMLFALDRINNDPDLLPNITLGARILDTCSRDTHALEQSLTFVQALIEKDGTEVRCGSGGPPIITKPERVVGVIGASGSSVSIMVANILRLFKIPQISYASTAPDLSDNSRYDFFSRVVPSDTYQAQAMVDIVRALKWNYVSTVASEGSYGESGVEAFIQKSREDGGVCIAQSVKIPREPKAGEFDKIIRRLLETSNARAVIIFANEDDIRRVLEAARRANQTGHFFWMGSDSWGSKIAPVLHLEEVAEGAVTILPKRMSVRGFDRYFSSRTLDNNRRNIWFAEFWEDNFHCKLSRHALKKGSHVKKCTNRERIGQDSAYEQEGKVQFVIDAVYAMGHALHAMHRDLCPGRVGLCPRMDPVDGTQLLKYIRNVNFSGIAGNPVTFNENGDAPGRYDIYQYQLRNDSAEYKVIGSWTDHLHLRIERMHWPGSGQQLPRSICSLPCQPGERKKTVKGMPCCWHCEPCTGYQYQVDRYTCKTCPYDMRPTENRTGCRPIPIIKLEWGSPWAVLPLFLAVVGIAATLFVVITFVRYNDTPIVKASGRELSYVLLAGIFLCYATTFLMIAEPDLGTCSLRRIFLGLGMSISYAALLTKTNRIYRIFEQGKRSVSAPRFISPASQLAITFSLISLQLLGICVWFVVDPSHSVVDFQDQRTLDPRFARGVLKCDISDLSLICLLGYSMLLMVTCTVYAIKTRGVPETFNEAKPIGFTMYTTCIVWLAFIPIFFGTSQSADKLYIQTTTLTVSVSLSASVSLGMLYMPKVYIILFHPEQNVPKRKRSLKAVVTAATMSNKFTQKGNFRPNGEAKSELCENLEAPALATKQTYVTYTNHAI
mGlu6, sequence (O15303 25-877): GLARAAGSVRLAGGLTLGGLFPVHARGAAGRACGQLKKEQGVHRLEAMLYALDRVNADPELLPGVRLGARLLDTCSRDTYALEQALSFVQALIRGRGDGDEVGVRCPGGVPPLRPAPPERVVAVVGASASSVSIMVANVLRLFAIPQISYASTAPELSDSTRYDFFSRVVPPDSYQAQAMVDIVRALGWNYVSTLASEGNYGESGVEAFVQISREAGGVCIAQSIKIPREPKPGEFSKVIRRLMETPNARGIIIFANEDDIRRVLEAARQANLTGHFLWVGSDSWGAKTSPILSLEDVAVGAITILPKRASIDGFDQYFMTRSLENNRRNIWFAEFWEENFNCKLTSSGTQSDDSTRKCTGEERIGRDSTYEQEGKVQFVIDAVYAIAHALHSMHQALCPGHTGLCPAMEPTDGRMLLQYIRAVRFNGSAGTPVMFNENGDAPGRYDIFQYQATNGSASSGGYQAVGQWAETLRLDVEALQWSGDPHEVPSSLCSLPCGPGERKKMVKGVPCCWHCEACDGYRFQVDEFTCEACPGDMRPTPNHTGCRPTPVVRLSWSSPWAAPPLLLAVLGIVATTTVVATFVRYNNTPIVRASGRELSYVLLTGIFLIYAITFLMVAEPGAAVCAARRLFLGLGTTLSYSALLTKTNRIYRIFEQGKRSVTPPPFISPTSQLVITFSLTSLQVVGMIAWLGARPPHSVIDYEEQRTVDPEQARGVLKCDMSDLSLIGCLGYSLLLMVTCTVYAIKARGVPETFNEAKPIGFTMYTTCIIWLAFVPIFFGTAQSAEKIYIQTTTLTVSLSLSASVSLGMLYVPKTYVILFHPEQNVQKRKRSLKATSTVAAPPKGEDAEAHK
mGlu8, sequence (O00222 34-908): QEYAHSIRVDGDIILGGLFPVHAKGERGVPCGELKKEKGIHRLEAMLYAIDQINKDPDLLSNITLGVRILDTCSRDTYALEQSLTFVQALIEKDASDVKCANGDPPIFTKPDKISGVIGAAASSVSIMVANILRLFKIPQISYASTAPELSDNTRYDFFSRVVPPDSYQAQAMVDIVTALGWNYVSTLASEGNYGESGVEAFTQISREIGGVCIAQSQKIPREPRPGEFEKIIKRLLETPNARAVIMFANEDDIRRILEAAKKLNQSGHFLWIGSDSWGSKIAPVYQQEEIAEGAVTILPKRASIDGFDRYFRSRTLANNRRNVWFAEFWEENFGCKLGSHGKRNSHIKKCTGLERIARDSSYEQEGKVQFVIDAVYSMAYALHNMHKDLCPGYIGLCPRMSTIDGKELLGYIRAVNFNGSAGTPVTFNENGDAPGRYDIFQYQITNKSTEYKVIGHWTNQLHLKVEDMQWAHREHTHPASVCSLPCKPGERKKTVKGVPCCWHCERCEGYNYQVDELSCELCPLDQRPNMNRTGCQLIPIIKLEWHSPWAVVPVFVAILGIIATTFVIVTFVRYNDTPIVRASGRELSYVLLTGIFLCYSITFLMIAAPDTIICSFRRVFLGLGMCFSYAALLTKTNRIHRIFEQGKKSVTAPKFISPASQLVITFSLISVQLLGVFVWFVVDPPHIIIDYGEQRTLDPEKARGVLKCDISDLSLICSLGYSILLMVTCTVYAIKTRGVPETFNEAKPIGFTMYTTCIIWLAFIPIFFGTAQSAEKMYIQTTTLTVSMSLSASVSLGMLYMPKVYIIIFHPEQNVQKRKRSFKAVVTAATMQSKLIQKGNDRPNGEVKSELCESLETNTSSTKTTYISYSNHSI

SMILES	LLE [5]	mGlu1 antagonism (in words) [5]	mGlu1 potency relative to 8 (fold less potent) [5]	other results
O=C(N1C[C@@H]2CN(c3ccccn3)C[C@@H]2C1)C12CC3CC(CC(C3)C1)C2 [Compound 8]	2.79	–	–	activity at mGlu6 [1]: very weak and marginal activity; activity at mGlu3 [2]: no activity; activity at mGlu2 [3]: no activity; activity at mGlu8 [4]: very weak and marginal activity; human mGlu1 potency relative to 1 (fold more potent) [5]: greater than seven fold; activity at mGlu4 [6]: no activity; CYP3A4 inhibition (in words) [7]: moderate inhibitors; activity at mGlu7 [8]: very weak and marginal activity
CC(C)(C)C(=O)N1C[C@@H]2CN(c3ccccn3)C[C@@H]2C1 [Compound 9]	–	inactive	–	–
CC1(C(=O)N2C[C@@H]3CN(c4ccccn4)C[C@@H]3C2)CCCCC1 [Compound 14]	–	–	sixty	–
CC(C)(C)CC(=O)N1C[C@@H]2CN(c3ccccn3)C[C@@H]2C1 [Compound 16]	–	inactive	–	–
O=C(N1C[C@@H]2CN(c3nccs3)C[C@@H]2C1)C12CC3CC(CC(C3)C1)C2 [Compound 23]	–	only weak antagonists	–	–
O=C(N1C[C@@H]2CN(c3ncccn3)C[C@@H]2C1)C12CC3CC(CC(C3)C1)C2 [Compound 24]	–	only weak antagonists	–	–
O=C(N1C[C@@H]2CN(c3ccncn3)C[C@@H]2C1)C12CC3CC(CC(C3)C1)C2 [Compound 25]	–	only weak antagonists	–	–
O=C(N1C[C@@H]2CN(c3cnccn3)C[C@@H]2C1)C12CC3CC(CC(C3)C1)C2 [Compound 26]	1.21	–	eight fold	–
O=C(N1C[C@@H]2CN(c3cccc(F)n3)C[C@@H]2C1)C12CC3CC(CC(C3)C1)C2 [Compound 27]	2.50	–	equipotent	–
C[C@@H]1CN(c2cccnc2C#N)CCN1C(=O)C12CC3CC(CC(C3)C1)C2 [VU0469650, reference compound]	–	–	–	CYP3A4 inhibition (in words) [7]: moderate inhibitors

More lines, main results first:

LLE [5]	mGlu1 antagonism (in words) [5]	mGlu1 potency relative to 8 (fold less potent) [5]	SMILES	other results
1.88	–	six fold	O=C(N1C[C@@H]2CN(c3ccc(F)cn3)C[C@@H]2C1)C12CC3CC(CC(C3)C1)C2 [Compound 28]	–
–	–	12 fold	O=C(N1C[C@@H]2CN(c3ncccc3F)C[C@@H]2C1)C12CC3CC(CC(C3)C1)C2 [Compound 29]	–
2.18	–	–	N#Cc1ccccc1N1C[C@H]2CN(C(=O)C34CC5CC(CC(C5)C3)C4)C[C@H]2C1 [Compound 30]	–
–	moderate potency	–	N#Cc1ccncc1N1C[C@H]2CN(C(=O)C34CC5CC(CC(C5)C3)C4)C[C@H]2C1 [Compound 32]	–
2.87	moderate potency	–	N#Cc1ncccc1N1C[C@H]2CN(C(=O)C34CC5CC(CC(C5)C3)C4)C[C@H]2C1 [Compound 34]	–
4.12	–	three fold	O=C(N1C[C@@H]2CN(c3ccccn3)C[C@@H]2C1)N1CCC2(CCCC2)C1 [Compound 38]	activity at mGlu6 [1]: very weak and marginally significant activity; activity at mGlu3 [2]: no activity; activity at mGlu2 [3]: no activity; activity at mGlu8 [4]: very weak and marginally significant activity; activity at mGlu4 [6]: no activity; activity at mGlu7 [8]: no activity
2.71	–	–	O=C(N1CCC2(CCCCC2)CC1)N1C[C@@H]2CN(c3ccccn3)C[C@@H]2C1 [Compound 40]	–
